From US8658649B2, “Kinase inhibitor” (Sanofi, priority 2006, dated 2014)

Experiments:
[1] = test system: Collagen-induced arthritis (CIA); experiment: Rat collagen induced arthritis, therapeutic dosing; format: in vivo
Protocol: (§1) Immunization and Challenge: Female Lewis rats were immunized on day 0 and challenged on day 7 with cII from bovine nasal mixed with Freund's incomplete adjuvant at a final collagen concentration of 1.0 mg/ml. The animals were injected at the base of the tail with 400 μg of cII.
Therapeutic Dosing Regimen: The compound of Formula I (10 and 30 mg/kg, p.o., b.i.d.) was orally administered starting on day 12 and continued through day 21.
(§2) Joint Pathology Ankle joint swelling was measured to the nearest 0.01 mm by using electronic digital calipers. Measurements were recorded 7 times throughout the study starting on day 6 and ending on day 21. Body weights were recorded on the same days. On day 21, hind paws were removed at the hairline just above the ankle and fixed in 10% neutral buffered formalin.
MicroCT analysis: Ankle joints were examined using a cone-beam μCT scanner. […] In ankle joints, the ratio of bone surface to bone volume, describing the complexity of bone surface in a certain volume, was analyzed.
Statistical Analysis For joint swelling/inflammation, data were analyzed using Everstat v.5 software and a 2-way repeated measure ANOVA with Dunnett's post test. MicroCT data were analyzed by Everstat using a 1-way ANOVA and Newman-Keuls multiple comparison test. […]

[2] = test system: Collagen-induced arthritis (CIA); experiment: Rat collagen induced arthritis, combination dosing with Methotrexate; format: in vivo
Protocol: Immunization and Challenge: Female Lewis rats were immunized on day 0 and challenged on day 7 with cII from bovine nasal mixed with Freund's incomplete adjuvant at a final collagen concentration of 1.0 mg/ml. The animals were injected at the base of the tail with 400 μg of cII. Combination Dosing Regimen: Rats were dosed with the compound of Formula I (3.0 and 10 mg/kg, p.o., bi.d.) or Methotrexate (MTX, 0.1 and 0.2 mg/kg, p.o., q.d.) as monotherapy or in combinations consisting of each dose of the compound of Formula I with each dose of MTX starting on day 6 and continuing through day 21. Joint Pathology Ankle joint swelling was measured to the nearest 0.01 mm by using electronic digital calipers. Measurements were recorded 7 times throughout the study starting on day 6 and ending on day 21. Body weights were recorded on the same days. On day 21, hind paws were removed at the hairline just above the ankle and fixed in 10% neutral buffered formalin. MicroCT analysis: Ankle joints were examined using a cone-beam μCT scanner. A scout view scan was obtained first for selection of the examination volume of the specimens, followed by positioning, measurement and computational reconstruction. In ankle joints, the ratio of bone surface to bone volume, describing the complexity of bone surface in a certain volume, was analyzed. Statistical Analysis For joint swelling/inflammation, data were analyzed using Everstat v.5 software and a 2-way repeated measure ANOVA with Dunnett's post test. MicroCT data were analyzed by Everstat using a 1-way ANOVA and Newman-Keuls multiple comparison test.

[3] = test system: hematological malignant cell lines; experiment: Viability assay (MTS), panel of hematological malignant cell lines; format: cell-based
Protocol: This method is to determine the viability of a liquid tumor cell line following treatment with a test compound. Tumor cells are maintained in suspension at log phase growth. On the day of use, cells are resuspended to a density of 0.05 to 0.1 million/ml and cells are incubated in 96 well plate with the test compounds for 96 hours. Viability of cells was measured by incubating cells with Promega's MTS reagent. The viability of the cell is proportional to the change in absorbance at 490 nm. By comparing the absorbance between control and compound-treated cells, the impact of the test compounds on the cell viability is determined as a percent of the control cell viability.
Harvest cells in complete RPMI from log-phase cultures at densities of approximately 0.3-0.7 million/ml. Count cells and adjust to 0.1 million/ml in phenol red free cRPMI (For fast growing cells with doubling time of equal or less than 24 hours, e.g. K562, use 0.05 million/ml instead to avoid over-growing).
Transfer triplicates of 100 μl of cells to the wells of 96-well clear plates for a total of 10000 cells/well. Note that each well already contains 10 μl of 10× concentrated test compound prepared as above.
Incubate cells for 72-96 hours at 37° C. in a tissue culture incubator containing 5% CO2.
1. […]
4. Incubate at 370 C until the absorbance at 490 nm for the control cells is >1.5. […]

[4] = test system: Collagen-induced arthritis (CIA); experiment: Rat collagen induced arthritis, prophylactic dosing; format: in vivo; conditions: vs vehicle
Protocol: as §1
Prophylactic Dosing Regimen: The compound of Formula I (3.0, 10, and 30 mg/kg) was orally dosed (p.o.) twice daily (b.i.d.) starting on day 6 and continued through day 21.
as §2
MicroCT analysis: Ankle joints were examined using a cone-beam μCT scanner. A scout view scan was obtained first for selection of the examination volume of the specimens, followed by positioning, measurement and computational reconstruction. In ankle joints, the ratio of bone surface to bone volume, describing the complexity of bone surface in a certain volume, was analyzed.
Statistical Analysis For joint swelling/inflammation, data were analyzed using Everstat v.5 software and a 2-way repeated measure ANOVA with Dunnett's post test. MicroCT data were analyzed by Everstat using a 1-way ANOVA and Newman-Keuls multiple comparison test. Data are presented as the mean±SEM and p values of <0.05 are considered significant.

Structure (SMILES): CCc1c(-c2ccc(C(C)(C)O)cc2)[nH]c2nccnc12 [compound of Formula I, 2-[4-(7-Ethyl-5H-pyrrolo[2,3-b]pyrazin-6-yl)-phenyl]-propan-2-ol]
- bone erosion (ratio of bone surface to bone volume), MicroCT ([1]; 10 mg/kg or 30 mg/kg, therapeutic dosing, vs vehicle): significant decrease in bone erosion
- ankle swelling/inflammation ([1]; 10 and 30 mg/kg p.o. b.i.d. from day 12, day 15-21): significantly reduced ankle swelling/inflammation
- disease severity as measured by joint swelling/inflammation ([2]; 3.0 mg/kg monotherapy): failed to significantly impact on disease severity
- bone erosion, MicroCT ([2]; 3 mg/kg monotherapy, vs vehicle): significant decrease was not observed
- ankle swelling/inflammation ([2]; 10 mg/kg monotherapy, vs vehicle, days 15 through 21): significantly reduced ankle swelling/inflammation
- bone erosion, MicroCT ([2]; 10 mg/kg po bid monotherapy, vs vehicle): significant decrease in bone erosion
- anti-proliferation activity in the two MCL cell lines ([3]; Jeko-1 and Granta-519): consistently active
- hematological malignant cell lines against which the compound is inhibitory ([3]; MTS assay, panel of Table 4): 6 out of 15
- ankle swelling/inflammation ([4]; 3.0 mg/kg p.o. b.i.d. day 6-21, on day 12 only): significantly reduced ankle swelling/inflammation
- ankle swelling/inflammation ([4]; 10 mg/kg p.o. b.i.d. day 6-21, on days 12 through 19): significantly reduced ankle swelling/inflammation
- ankle swelling/inflammation ([4]; 30 mg/kg p.o. b.i.d. day 6-21, from day 12 through day 21): significantly reduced ankle swelling/inflammation
- bone erosion (ratio of bone surface to bone volume), MicroCT ([4]; 3, 10 or 30 mg/kg b.i.d.): significant reductions in bone erosion
